From ChEMBL document CHEMBL3885861, “Open TG-GATES”

Species: Rattus norvegicus
Assay: Open TG-GATES - Regimen: Single
Assay type: toxicity, organism-based, Sprague-Dawley
Design: regimen Single, gender Male, age 6 weeks
Conditions: in vivo, po, route gavage; for Fbg / Hb / Ht / Lym / MCH / MCHC / MCV / Mono / Neu / PT / Plat / RBC / Ret / WBC / APTT / Bas / Eos: tissue Blood; for KIDNEY_L / KIDNEY_R / KIDNEY_TOTAL: tissue Kidney; for LIVER: tissue Liver; for A/G / ALP / ALT / AST / BUN / CRE / Ca / Cl / DBIL / GLC / IP / K / LDH / Na / PL / RALB / TBIL / TC / TG / TP / gamma-GTP: tissue Plasma
[1] = 300 mg/kg, 6 h, dose level Middle
[2] = 300 mg/kg, 9 h, dose level Middle
[3] = 300 mg/kg, 24 h, dose level Middle
[4] = 600 mg/kg, 3 h, dose level High
[5] = 600 mg/kg, 6 h, dose level High
[6] = 600 mg/kg, 9 h, dose level High
[7] = 600 mg/kg, 24 h, dose level High

O=C1CN(/N=C/c2ccc([N+](=O)[O-])o2)C(=O)N1 [NITROFURANTOIN]
Fbg [1]: 235.8 mg/dL
Hb [1]: 13.2 g/dL
Ht [1]: 40%
Lym [1]: 70.6%
MCH [1]: 21.1 pg
MCHC [1]: 33%
MCV [1]: 63.9 fL
Mono [1]: 8%
Neu [1]: 20%
PT [1]: 11.7 s
Plat [1]: 127.7 x10_4/uL
RBC [1]: 625.2 x10_4/ul
Ret [1]: 7.7%
WBC [1]: 80.2 x10_2/uL
KIDNEY_L [1]: 0.9 g
KIDNEY_R [1]: 0.9 g
KIDNEY_TOTAL [1]: 1.9 g
LIVER [1]: 8.7 g
A/G [1]: 2.4
ALP [1]: 1363.8 IU/L
ALT [1]: 30.6 IU/L
AST [1]: 63.4 IU/L
BUN [1]: 10 mg/dL
CRE [1]: 0.5 mg/dL
Ca [1]: 11.5 mg/dL
Cl [1]: 103.8 meq/L
DBIL [1]: 0.004 mg/dL
GLC [1]: 192.4 mg/dL
IP [1]: 9.1 mg/dL
K [1]: 4.2 meq/L
LDH [1]: 69 IU/L
Na [1]: 137.2 meq/L
PL [1]: 158.2 mg/dL
RALB [1]: 4.1 g/dL
TBIL [1]: 0.036 mg/dL
TC [1]: 113 mg/dL
TG [1]: 36.2 mg/dL
TP [1]: 5.8 g/dL
gamma-GTP [1]: 0.2 IU/L
TERMINAL_BW [2]: 204.4 g
APTT [2]: 17 s
Bas [2]: 0%
Eos [2]: 1.2%
Fbg [2]: 234.8 mg/dL
Hb [2]: 13.3 g/dL
Ht [2]: 40.4%
Lym [2]: 70.6%
MCH [2]: 21.5 pg
MCHC [2]: 33%
MCV [2]: 64.9 fL
Mono [2]: 7.8%
Neu [2]: 20.6%
PT [2]: 11.7 s
Plat [2]: 116.3 x10_4/uL
RBC [2]: 622.6 x10_4/ul
Ret [2]: 6.4%
WBC [2]: 62.7 x10_2/uL
KIDNEY_L [2]: 0.9 g
KIDNEY_R [2]: 1 g
KIDNEY_TOTAL [2]: 1.9 g
LIVER [2]: 8.9 g
A/G [2]: 2.2
ALP [2]: 1126.4 IU/L
ALT [2]: 29.6 IU/L
AST [2]: 59.4 IU/L
BUN [2]: 12.4 mg/dL
CRE [2]: 0.4 mg/dL
Ca [2]: 11.4 mg/dL
Cl [2]: 106 meq/L
DBIL [2]: 0.008 mg/dL
GLC [2]: 210 mg/dL
IP [2]: 8.5 mg/dL
K [2]: 4.4 meq/L
LDH [2]: 61.8 IU/L
Na [2]: 138.6 meq/L
PL [2]: 143.8 mg/dL
RALB [2]: 4 g/dL
TBIL [2]: 0.038 mg/dL
TC [2]: 88.6 mg/dL
TG [2]: 62.8 mg/dL
TP [2]: 5.9 g/dL
gamma-GTP [2]: 1 IU/L
TERMINAL_BW [3]: 197.5 g
APTT [3]: 16 s
Bas [3]: 0%
Eos [3]: 1.6%
Fbg [3]: 229.2 mg/dL
Hb [3]: 13.8 g/dL
Ht [3]: 42.2%
Lym [3]: 82%
MCH [3]: 21.3 pg
MCHC [3]: 32.6%
MCV [3]: 65.3 fL
Mono [3]: 4.2%
Neu [3]: 12.2%
PT [3]: 11.6 s
Plat [3]: 128 x10_4/uL
RBC [3]: 647 x10_4/ul
Ret [3]: 6.2%
WBC [3]: 69.5 x10_2/uL
KIDNEY_L [3]: 1 g
KIDNEY_R [3]: 1 g
KIDNEY_TOTAL [3]: 2.1 g
LIVER [3]: 8.1 g
A/G [3]: 2.2
ALP [3]: 1379.2 IU/L
ALT [3]: 32.6 IU/L
AST [3]: 62.6 IU/L
BUN [3]: 15.4 mg/dL
CRE [3]: 0.4 mg/dL
Ca [3]: 11.1 mg/dL
Cl [3]: 107.8 meq/L
DBIL [3]: 0.01 mg/dL
GLC [3]: 194.2 mg/dL
IP [3]: 9.1 mg/dL
K [3]: 4.6 meq/L
LDH [3]: 73.4 IU/L
Na [3]: 140.8 meq/L
PL [3]: 150.8 mg/dL
RALB [3]: 3.8 g/dL
TBIL [3]: 0.028 mg/dL
TC [3]: 85.8 mg/dL
TG [3]: 118.6 mg/dL
TP [3]: 5.6 g/dL
gamma-GTP [3]: 0 IU/L
TERMINAL_BW [4]: 206.4 g
APTT [4]: 16.4 s
Bas [4]: 0%
Eos [4]: 1%
Fbg [4]: 233.2 mg/dL
Hb [4]: 13.2 g/dL
Ht [4]: 40.3%
Lym [4]: 71%
MCH [4]: 21.1 pg
MCHC [4]: 32.8%
MCV [4]: 64.4 fL
Mono [4]: 6.4%
Neu [4]: 22.4%
PT [4]: 12.1 s
Plat [4]: 121.3 x10_4/uL
RBC [4]: 625.6 x10_4/ul
Ret [4]: 7.8%
WBC [4]: 72.9 x10_2/uL
KIDNEY_L [4]: 0.9 g
KIDNEY_R [4]: 1 g
KIDNEY_TOTAL [4]: 1.9 g
LIVER [4]: 8.8 g
A/G [4]: 2.2
ALP [4]: 1226.6 IU/L
ALT [4]: 36 IU/L
AST [4]: 64.4 IU/L
BUN [4]: 12 mg/dL
CRE [4]: 0.5 mg/dL
Ca [4]: 11.6 mg/dL
Cl [4]: 104 meq/L
DBIL [4]: 0 mg/dL
GLC [4]: 198.4 mg/dL
IP [4]: 10.1 mg/dL
K [4]: 4 meq/L
LDH [4]: 91.2 IU/L
Na [4]: 139.6 meq/L
PL [4]: 146 mg/dL
RALB [4]: 4.1 g/dL
TBIL [4]: 0.034 mg/dL
TC [4]: 90.8 mg/dL
TG [4]: 54.8 mg/dL
TP [4]: 5.9 g/dL
gamma-GTP [4]: 1 IU/L
TERMINAL_BW [5]: 204.9 g
APTT [5]: 16 s
Bas [5]: 0%
Eos [5]: 1%
Fbg [5]: 228.8 mg/dL
Hb [5]: 13.7 g/dL
Ht [5]: 41.9%
Lym [5]: 74.8%
MCH [5]: 20.9 pg
MCHC [5]: 32.8%
MCV [5]: 63.9 fL
Mono [5]: 5.8%
Neu [5]: 18.6%
PT [5]: 11.8 s
Plat [5]: 115.3 x10_4/uL
RBC [5]: 656.6 x10_4/ul
Ret [5]: 7.9%
WBC [5]: 63.6 x10_2/uL
KIDNEY_L [5]: 0.9 g
KIDNEY_R [5]: 0.9 g
KIDNEY_TOTAL [5]: 1.9 g
LIVER [5]: 8.7 g
A/G [5]: 2.4
ALP [5]: 1281.4 IU/L
ALT [5]: 34.6 IU/L
AST [5]: 64.4 IU/L
BUN [5]: 12.6 mg/dL
CRE [5]: 0.5 mg/dL
Ca [5]: 11.5 mg/dL
Cl [5]: 104.2 meq/L
DBIL [5]: 0.008 mg/dL
GLC [5]: 193 mg/dL
IP [5]: 9 mg/dL
K [5]: 4.3 meq/L
LDH [5]: 74.4 IU/L
Na [5]: 137.8 meq/L
PL [5]: 144.2 mg/dL
RALB [5]: 4.1 g/dL
TBIL [5]: 0.04 mg/dL
TC [5]: 99.6 mg/dL
TG [5]: 33 mg/dL
TP [5]: 5.8 g/dL
gamma-GTP [5]: 0 IU/L
TERMINAL_BW [6]: 205.1 g
APTT [6]: 16.6 s
Bas [6]: 0%
Eos [6]: 1%
Fbg [6]: 229 mg/dL
Hb [6]: 13.5 g/dL
Ht [6]: 41.1%
Lym [6]: 71.4%
MCH [6]: 21.2 pg
MCHC [6]: 32.9%
MCV [6]: 64.6 fL
Mono [6]: 8%
Neu [6]: 19.8%
PT [6]: 11.7 s
Plat [6]: 127.2 x10_4/uL
RBC [6]: 636.6 x10_4/ul
Ret [6]: 7.2%
WBC [6]: 77 x10_2/uL
KIDNEY_L [6]: 1 g
KIDNEY_R [6]: 0.9 g
KIDNEY_TOTAL [6]: 1.9 g
LIVER [6]: 8.9 g
A/G [6]: 2.3
ALP [6]: 1100.8 IU/L
ALT [6]: 28.6 IU/L
AST [6]: 59.4 IU/L
BUN [6]: 12.6 mg/dL
CRE [6]: 0.4 mg/dL
Ca [6]: 11.3 mg/dL
Cl [6]: 104.2 meq/L
DBIL [6]: 0.01 mg/dL
GLC [6]: 194 mg/dL
IP [6]: 9.2 mg/dL
K [6]: 4.4 meq/L
LDH [6]: 82.6 IU/L
Na [6]: 137.4 meq/L
PL [6]: 160.4 mg/dL
RALB [6]: 4.1 g/dL
TBIL [6]: 0.042 mg/dL
TC [6]: 104.4 mg/dL
TG [6]: 46 mg/dL
TP [6]: 5.9 g/dL
gamma-GTP [6]: 1 IU/L
TERMINAL_BW [7]: 201.7 g
APTT [7]: 16.3 s
Bas [7]: 0%
Eos [7]: 1.6%
Fbg [7]: 238 mg/dL
Hb [7]: 13.7 g/dL
Ht [7]: 41.6%
Lym [7]: 78.8%
MCH [7]: 21.2 pg
MCHC [7]: 33%
MCV [7]: 64.4 fL
Mono [7]: 8.2%
Neu [7]: 11.8%
PT [7]: 11.8 s
Plat [7]: 131.1 x10_4/uL
RBC [7]: 647 x10_4/ul
Ret [7]: 6.5%
WBC [7]: 54.6 x10_2/uL
KIDNEY_L [7]: 1 g
KIDNEY_R [7]: 1 g
KIDNEY_TOTAL [7]: 1.9 g
LIVER [7]: 8.3 g
A/G [7]: 2.2
ALP [7]: 1073.2 IU/L
ALT [7]: 21.4 IU/L
AST [7]: 54.8 IU/L
BUN [7]: 11.4 mg/dL
CRE [7]: 0.5 mg/dL
Ca [7]: 11.4 mg/dL
Cl [7]: 108 meq/L
DBIL [7]: 0.01 mg/dL
GLC [7]: 170.2 mg/dL
IP [7]: 8.9 mg/dL
K [7]: 4.1 meq/L
LDH [7]: 91.2 IU/L
Na [7]: 140.2 meq/L
PL [7]: 138.4 mg/dL
RALB [7]: 4 g/dL
TBIL [7]: 0.04 mg/dL
TC [7]: 95.6 mg/dL
TG [7]: 42.6 mg/dL
TP [7]: 5.9 g/dL
gamma-GTP [7]: 0 IU/L
